Data from PMC12022909, “A Multicomponent Reaction-Based Platform Opens New Avenues in Aryl Hydrocarbon Receptor Modulation” (ACS Central Science, 2025).

Legend:
HEK293T cells = assay: Cell viability (Annexin V-APC, flow cytometry) in HEK293T cells; type: cell-based; details: 24 h
Procedure: (§1) A phosphatidylserine exposure was used to determine cell viability. Cells were washed with PBS, pelleted, and then incubated with annexin binding buffer containing Annexin V-APC (Life Technologies) for 15 min in the dark. Then, samples were analyzed by flow cytometry using FACSCanto II and FACSDiva (BD Biosciences, Franklin Lakes, NJ, USA). Data represents the percentage of non - apoptotic cells (Ann -APC-).
(§2) The cytotoxicity of a selection of the synthesized compounds was assessed after 24 hours of treatment in two human cell lines, Jurkat and HEK293T, coming from either tumoral T-cell lymphocytes or non-tumoral embryonic kidney fibroblasts, respectively. […]
(§3) the pro-apoptotic activity was not significant below 10 µM for most compounds in both cell lines, except for 5i, 5k and 5l in both cell lines, as well as 9a in Jurkat and 5e HEK293T cells (Figure S35A-B).
(§4) Moreover, the cytotoxicity of compounds 4d, 5b, 5h, 8, 10, and 12d at a higher concentration (100 µM) was assessed in both cell lines, Jurkat and HEK293T. The cytotoxicity of compounds 5b, 5h, and 12d could not be properly tested as the compounds were not soluble […]
(§5) effects observed for compound 4d in Jurkat cells and compound 8 in HEK293T cells (Figure S35C).
(§6) Figure S35. A) Jurkat and B) HEK293T cells were treated with 1 and 10 µM doses of the corresponding compound for 24 hours. Indicated doses of fluorizoline were used as a positive control of cell death. C) Jurkat and HEK293T cells were treated with 100 µM of the corresponding compound for 24 hours. Viability was measured by flow cytometry, and it is expressed as the mean ± SEM (n = 3) of the percentage of non -apoptotic cells (Ann-APC-). * p < 0.05, ** p < 0.01 *** p < […]
(§7) (1 picture or pasted object on this page, not shown here)

[1] = Solubility in the growing media during cytotoxicity testing; type: physicochemical; details: concentration of 100 µM
Procedure: as §1, §2, §3, §4, §5, §6, §7

HaCaT cells = assay: UVA phototoxicity, caspase 3 activity in HaCaT cells; type: cell-based, human; details: for UVA radiation-induced caspase activity (phototoxicity): HaCaT, 1 h, UVA 5 J/cm2
Procedure: Irradiation with UVA and caspase 3 activity measurement […]
culture media was exchanged with PBS and the cells were sham or UVA (5 J/cm2) irradiated using the BS-02 irradiation chamber (Opsytec Dr. Gröbel, Ettlingen Germany). Media was added to the cells and after 4 h incubation, caspase 3 activity was measured as described previously.[33] Protein quantification was done with the Bio-Rad DC protein assay kit (Bio-Rad Laboratories, Hercules, CA) according to the manufacturer protocol.
We compared the phototoxic potential of five of our test compounds (8, 10, 5b, 5h, 4b) as well as the FDA-approved AhR activator […]
induced caspase activity at a concentration of 100 nM (Figure S36A). At a 10-fold higher concentration (1 µM) two of the test compounds […]
Figure S36. […] For statistical analysis a two-way ANOVA (Tukey post-hoc) was performed and data are shown as mean ± SEM. (*, p ≤ 0.05). […]

Jurkat cells = assay: Cell viability (Annexin V-APC, flow cytometry) in Jurkat cells; type: cell-based; details: 24 h
Procedure: as §1, §2, §3, §4, §5, §6, §7

CCOc1c2[nH]c3ccccc3c2cc2[nH]c3ccccc3c12 [compound 8, 6-ethoxy-ICZ]
cytotoxicity / pro-apoptotic activity at 100 µM (HEK293T cells): slight cytotoxic effects
solubility in the growing media [1]: slight turbidity
overlap between effective and toxic concentrations (HaCaT cells): minimal overlap
UVA radiation-induced caspase activity (phototoxicity) (HaCaT cells; 100 nM): neither tapinarof nor our 6-ICZ compounds enhanced
UVA radiation-induced caspase activity (phototoxicity) (HaCaT cells; 1 µM): exhibited similar effects to FICZ
cytotoxicity / pro-apoptotic activity at 100 µM (Jurkat cells): minimal pro-apoptotic activity
